{"source": "patent US12409157B2", "about": "“Mitofusin activators and methods of use thereof” (Mitochondria Emotion, Inc., priority 2019, dated 2025)", "key": {"[1]": {"tested_on": "mitofusin", "settings": "Rocha et al 2018 Science 360:336; read-out: EC50 as mitofusin activator; cited from earlier work"}, "[2]": {"tested_on": "T1, mitofusin", "T1 construct": "EC50 Mito Elongation; other: benchmark <30; unit given as nm; results of functional screening (mitochondrial elongation); other: DMSO vehicle, Reg C positive control", "assay": "mitofusin-dependent mitochondrial elongation (aspect ratio), functional screening", "assay_type": "cell-based, mouse", "settings": "DMSO vehicle, Reg C positive control; FIGS. 2-5"}, "[3]": {"target": "T2, MFN2 (Homo sapiens, UniProt O95140)", "T2 sequence (O95140 1-757)": "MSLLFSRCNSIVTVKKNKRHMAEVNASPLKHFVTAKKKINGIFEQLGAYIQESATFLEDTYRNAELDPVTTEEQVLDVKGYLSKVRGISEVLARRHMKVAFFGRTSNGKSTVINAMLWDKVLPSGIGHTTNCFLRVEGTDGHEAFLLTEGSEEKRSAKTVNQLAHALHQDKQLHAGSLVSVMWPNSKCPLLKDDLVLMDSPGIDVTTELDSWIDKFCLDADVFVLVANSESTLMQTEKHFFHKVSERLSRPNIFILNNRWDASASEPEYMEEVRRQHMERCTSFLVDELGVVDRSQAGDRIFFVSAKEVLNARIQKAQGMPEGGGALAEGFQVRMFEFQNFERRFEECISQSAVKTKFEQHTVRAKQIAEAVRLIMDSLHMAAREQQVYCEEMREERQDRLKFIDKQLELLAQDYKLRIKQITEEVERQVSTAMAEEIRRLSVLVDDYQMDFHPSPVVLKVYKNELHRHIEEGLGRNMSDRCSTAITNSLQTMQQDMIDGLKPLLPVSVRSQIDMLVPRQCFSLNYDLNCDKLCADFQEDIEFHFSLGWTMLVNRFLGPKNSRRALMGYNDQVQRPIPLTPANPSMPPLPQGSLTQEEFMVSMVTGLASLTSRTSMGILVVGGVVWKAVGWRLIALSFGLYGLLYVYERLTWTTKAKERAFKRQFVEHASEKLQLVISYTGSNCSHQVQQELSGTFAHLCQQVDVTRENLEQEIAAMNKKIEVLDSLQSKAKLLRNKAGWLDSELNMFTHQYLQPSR", "assay": "conformational opening of mitofusin 2", "assay_type": "biochemical", "settings": "FIG. 6B"}, "[4]": {"assay": "Plasma stability, human", "assay_type": "in vitro ADME", "settings": "H"}, "[5]": {"assay": "Plasma stability, mouse", "assay_type": "in vitro ADME", "settings": "M"}}, "note": "“Also recorded” adds a separate entry of the source."}
{"compound": "CC1CCCCC1NC(=O)NCCSCc1ccccc1", "note": "(stereo not shown) [compound A, 1-[2-(benzylsulfanyl)ethyl]-3-(2-methylcyclohexyl)urea]", "values": [{"measurement": "EC50", "setting": "[1]", "value": "~30", "unit": "nM"}]}
{"compound": "CC1CC(O)CCC1NC(=O)NCCCCc1ccccc1", "note": "(stereo not shown) [MiM5, 1-(4-Hydroxy-2-methylcyclohexyl)-3-(4-phenylbutyl)urea]", "values": [{"measurement": "results of functional screening (mitochondrial elongation)", "setting": "[2]", "value": "highly active"}]}
{"compound": "CC(Sc1nnc(C2CC2)n1-c1ccccc1)C(=O)Nc1sc2c(c1C(N)=O)CCC2", "note": "(stereo not shown) [compound B, 2-{2-[(5-cyclopropyl-4-phenyl-4H-1,2,4-triazol-3-yl)sulfanyl]propanamido}-4H,5H,6H-cyclopenta[b]thiophene-3-carboxamide]", "values": [{"measurement": "EC50", "setting": "[1]", "value": "~10", "unit": "nM"}]}
{"compound": "O=C(CCCCCc1ccccn1)NC1CCC(O)CC1", "note": "(stereo not shown) [MiM111 N1, (4-Hydroxycyclohexyl)-6-(pyridin-2-yl)hexanamide]", "values": [{"measurement": "results of functional screening (mitochondrial elongation)", "setting": "[2]", "value": "All compounds except MiM111 N1 were highly active"}]}
{"compound": "O=C(CCCCCc1ccccc1)NC1CCC(O)CC1", "note": "(stereo not shown) [MiM111, N-(4-hydroxycyclohexyl)-6-phenylhexanamide]", "values": [{"measurement": "conformational opening of MFN2", "setting": "[3]", "value": "induces an open conformation of its target MFN2; also recorded: conformational opening of MFN 2 mimics that of an agonist peptide"}, {"measurement": "Plasma Stability (120 min.)", "setting": "[4]", "value": 87, "unit": "%"}, {"measurement": "Plasma Stability (120 min.)", "setting": "[5]", "value": 100, "unit": "%"}]}
